{"source": "patent US7625875B2", "about": "(priority 2002, dated 2009)", "key": {"HCV": {"tested_on": "HCV", "assay": "Clinical antiviral activity, serum HCV RNA (Amplicor HCV Monitor), val-mCyd daily for 15 days"}, "[1]": {"assay": "Stability in human plasma"}, "Sb-1": {"tested_on": "Sb-1", "assay": "organism not typed", "format": "cell-based, Sabin type 1 poliomyelitis virus", "conditions": "read-out: Sb-1"}, "in vitro": {"assay": "in vitro", "conditions": "human"}, "[2]": {"assay": "Safety in the chimpanzee model of chronic HCV infection", "format": "in vivo", "conditions": "10 or 20 mg/kg/day dihydrochloride PO, 7 days", "description": "Chimpanzees were monitored by trained veterinarians throughout the study for weight loss, temperature, appetite, and general well being, as well as for blood chemistry profile and CBCs. […] The drug appeared to be well tolerated by all four treated animals. […] A single animal experienced an alanine aminotransferase (ALT) flare in the pretreatment period prior to the start of dosing, but the ALT levels diminished during treatment. Thus, this isolated ALT event was not attributable to drug."}, "DENV 2": {"tested_on": "DENV 2", "assay": "microbe, parasite or virus in culture", "format": "cell-based, dengue virus", "conditions": "Dengue virus, read-out: DENV 2"}}}
{"smiles": "CC(C)C(N)C(=O)OC1[C@@H](CO)O[C@@H](n2ccc(N)nc2=O)[C@@]1(C)O", "note": "(stereo partly drawn) [val-mCyd, 2-Amino-3-methyl-butyric acid 5-(4-amino-2-oxo-2H-pyrimidine-1-yl)-4-hydroxy-2 hydroxy-methyl-4-methyl-tetrahydro-furan-3-yl ester]", "values": [{"measurement": "HCV RNA in Log10 scale, median", "setting": "HCV; 50 mg, Day 17", "value": 6.54, "unit": "log10"}, {"measurement": "Change from baseline (Day 1) in Log10 HCV RNA, mean", "setting": "HCV; 50 mg, Day 22", "value": "−0.09", "unit": "log10"}, {"measurement": "Change from baseline (Day 1) in Log10 HCV RNA, median", "setting": "HCV; 50 mg, Day 22", "value": "−0.09", "unit": "log10"}, {"measurement": "HCV RNA in Log10 scale, mean", "setting": "HCV; 50 mg, Day 22", "value": 6.64, "unit": "log10"}, {"measurement": "HCV RNA in Log10 scale, median", "setting": "HCV; 50 mg, Day 22", "value": 6.73, "unit": "log10"}, {"measurement": "Change from baseline (Day 1) in Log10 HCV RNA, mean", "setting": "HCV; 50 mg, Day 29", "value": "−0.01", "unit": "log10"}, {"measurement": "Change from baseline (Day 1) in Log10 HCV RNA, median", "setting": "HCV; 50 mg, Day 29", "value": "−0.04", "unit": "log10"}, {"measurement": "HCV RNA in Log10 scale, mean", "setting": "HCV; 50 mg, Day 29", "value": 6.71, "unit": "log10"}, {"measurement": "HCV RNA in Log10 scale, median", "setting": "HCV; 50 mg, Day 29", "value": 6.67, "unit": "log10"}, {"measurement": "HCV RNA in Log10 scale, mean", "setting": "HCV; 50 mg, Day −1 (pre-treatment)", "value": 6.72, "unit": "log10"}, {"measurement": "HCV RNA in Log10 scale, median", "setting": "HCV; 50 mg, Day −1 (pre-treatment)", "value": 6.81, "unit": "log10"}, {"measurement": "HCV RNA in Log10 scale, mean", "setting": "HCV; 100 mg, Day 1 (baseline)", "value": 6.68, "unit": "log10"}, {"measurement": "HCV RNA in Log10 scale, median", "setting": "HCV; 100 mg, Day 1 (baseline)", "value": 6.93, "unit": "log10"}, {"measurement": "Change from baseline (Day 1) in Log10 HCV RNA, mean", "setting": "HCV; 100 mg, Day 2", "value": "−0.16", "unit": "log10"}, {"measurement": "Change from baseline (Day 1) in Log10 HCV RNA, median", "setting": "HCV; 100 mg, Day 2", "value": "−0.12", "unit": "log10"}, {"measurement": "HCV RNA in Log10 scale, mean", "setting": "HCV; 100 mg, Day 2", "value": 6.52, "unit": "log10"}, {"measurement": "HCV RNA in Log10 scale, median", "setting": "HCV; 100 mg, Day 2", "value": 6.80, "unit": "log10"}, {"measurement": "Change from baseline (Day 1) in Log10 HCV RNA, mean", "setting": "HCV; 100 mg, Day 4", "value": "−0.25", "unit": "log10"}, {"measurement": "Change from baseline (Day 1) in Log10 HCV RNA, median", "setting": "HCV; 100 mg, Day 4", "value": "−0.24", "unit": "log10"}, {"measurement": "HCV RNA in Log10 scale, mean", "setting": "HCV; 100 mg, Day 4", "value": 6.43, "unit": "log10"}, {"measurement": "HCV RNA in Log10 scale, median", "setting": "HCV; 100 mg, Day 4", "value": 6.46, "unit": "log10"}, {"measurement": "Change from baseline (Day 1) in Log10 HCV RNA, mean", "setting": "HCV; 100 mg, Day 8", "value": "−0.21", "unit": "log10"}, {"measurement": "Change from baseline (Day 1) in Log10 HCV RNA, median", "setting": "HCV; 100 mg, Day 8", "value": "−0.20", "unit": "log10"}, {"measurement": "HCV RNA in Log10 scale, mean", "setting": "HCV; 100 mg, Day 8", "value": 6.42, "unit": "log10"}, {"measurement": "HCV RNA in Log10 scale, median", "setting": "HCV; 100 mg, Day 8", "value": 6.59, "unit": "log10"}, {"measurement": "Change from baseline (Day 1) in Log10 HCV RNA, mean", "setting": "HCV; 100 mg, Day 11", "value": "−0.32", "unit": "log10"}, {"measurement": "Change from baseline (Day 1) in Log10 HCV RNA, median", "setting": "HCV; 100 mg, Day 11", "value": "−0.28", "unit": "log10"}, {"measurement": "HCV RNA in Log10 scale, mean", "setting": "HCV; 100 mg, Day 11", "value": 6.36, "unit": "log10"}, {"measurement": "HCV RNA in Log10 scale, median", "setting": "HCV; 100 mg, Day 11", "value": 6.56, "unit": "log10"}, {"measurement": "Change from baseline (Day 1) in Log10 HCV RNA, mean", "setting": "HCV; 100 mg, Day 15", "value": "−0.38", "unit": "log10"}, {"measurement": "Change from baseline (Day 1) in Log10 HCV RNA, median", "setting": "HCV; 100 mg, Day 15", "value": "−0.43", "unit": "log10"}, {"measurement": "HCV RNA in Log10 scale, mean", "setting": "HCV; 100 mg, Day 15", "value": 6.30, "unit": "log10"}, {"measurement": "HCV RNA in Log10 scale, median", "setting": "HCV; 100 mg, Day 15", "value": 6.41, "unit": "log10"}, {"measurement": "Change from baseline (Day 1) in Log10 HCV RNA, mean", "setting": "HCV; 100 mg, Day 16", "value": "−0.39", "unit": "log10"}, {"measurement": "Change from baseline (Day 1) in Log10 HCV RNA, median", "setting": "HCV; 100 mg, Day 16", "value": "−0.49", "unit": "log10"}, {"measurement": "HCV RNA in Log10 scale, mean", "setting": "HCV; 100 mg, Day 16", "value": 6.23, "unit": "log10"}, {"measurement": "HCV RNA in Log10 scale, median", "setting": "HCV; 100 mg, Day 16", "value": 6.40, "unit": "log10"}, {"measurement": "Change from baseline (Day 1) in Log10 HCV RNA, mean", "setting": "HCV; 100 mg, Day 17", "value": "−0.18", "unit": "log10"}, {"measurement": "Change from baseline (Day 1) in Log10 HCV RNA, median", "setting": "HCV; 100 mg, Day 17", "value": "−0.24", "unit": "log10"}, {"measurement": "HCV RNA in Log10 scale, mean", "setting": "HCV; 100 mg, Day 17", "value": 6.65, "unit": "log10"}, {"measurement": "HCV RNA in Log10 scale, median", "setting": "HCV; 100 mg, Day 17", "value": 6.72, "unit": "log10"}, {"measurement": "Change from baseline (Day 1) in Log10 HCV RNA, mean", "setting": "HCV; 100 mg, Day 22", "value": "−0.15", "unit": "log10"}, {"measurement": "Change from baseline (Day 1) in Log10 HCV RNA, median", "setting": "HCV; 100 mg, Day 22", "value": "−0.19", "unit": "log10"}, {"measurement": "HCV RNA in Log10 scale, mean", "setting": "HCV; 100 mg, Day 22", "value": 6.53, "unit": "log10"}, {"measurement": "HCV RNA in Log10 scale, median", "setting": "HCV; 100 mg, Day 22", "value": 6.66, "unit": "log10"}, {"measurement": "Change from baseline (Day 1) in Log10 HCV RNA, mean", "setting": "HCV; 100 mg, Day 29", "value": 0.13, "unit": "log10"}, {"measurement": "Change from baseline (Day 1) in Log10 HCV RNA, median", "setting": "HCV; 100 mg, Day 29", "value": "−0.12", "unit": "log10"}, {"measurement": "HCV RNA in Log10 scale, mean", "setting": "HCV; 100 mg, Day 29", "value": 6.67, "unit": "log10"}, {"measurement": "HCV RNA in Log10 scale, median", "setting": "HCV; 100 mg, Day 29", "value": 6.71, "unit": "log10"}, {"measurement": "HCV RNA in Log10 scale, mean", "setting": "HCV; 100 mg, Day −1 (pre-treatment)", "value": 6.60, "unit": "log10"}, {"measurement": "HCV RNA in Log10 scale, median", "setting": "HCV; 100 mg, Day −1 (pre-treatment)", "value": 6.75, "unit": "log10"}, {"measurement": "input val-mCyd remaining", "setting": "[1]; 37° C., after 10 hours", "value": 2, "unit": "%"}, {"measurement": "half-life", "setting": "[1]; human, plasma", "value": 1.81, "unit": "h"}, {"measurement": "EC50", "setting": "Sb-1", "value": 14, "unit": "µM"}, {"measurement": "CC50", "setting": "in vitro", "value": 24, "unit": "µM"}, {"measurement": "adverse events, tolerability", "setting": "[2]", "value": "No adverse events due to drug were noted"}, {"measurement": "EC50", "setting": "DENV 2", "value": "> 100", "unit": "µM"}]}
